One experiment deals with excised human nerve tissue. The experiment in a line: Phage display selection on excised human nerve tissue (Nerve2, Nerve3), NextGen sequence counts. The format is binding. To be noted: unique sequence count (relative enrichment); Nerve2 only. The procedure, abridged:
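Randomized parent-peptide m13 phage libraries (about 50% mutation per residue) selected on washed excised human nerve tissue over multiple rounds, washing nerve pellet with PBS. NextGen sequencing of pools after rounds 2, 3 and 4; translated peptides counted by frequency, with counts 6 or greater retained.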
Take 333 (QKPTGASYYGTKPS) [compound 333]: the Count was determined as 10.
In turn, 334 (QLAFDGPSPILTTS) [compound 334] returned a Count of 10.
With 335 (QLHWGQPYSILNKS) [compound 335], the Count is on record as 10.
The same measure, in the same setting: the same measure for 336 (QLPCEVPCYLVQYS) [compound 336]: 10; for 337 (QLPLQYRYYFVDQS) [compound 337]: 10; for 338 (QLPWEGKYQLGKKR) [compound 338]: 10.
On the same count and under the same terms, the figure for 339 (QLRWHEPYHVVNRY) [compound 339] is 10; for 340 (QSQCAGPGSAYKKC) [compound 340] it is 10; for 341 (QTLAGETNSVVLKF) [compound 341] it is 10.
On the same count and under the same terms, the same measure for 342 (QTQCEEPCYVVKFA) [compound 342]: 10.
343 (QVPSEEQFYAAVKS) [compound 343] returned a Count of 10.
On to 344 (QVPSENPFRVLKNL) [compound 344], for which the Count is 10.
345 (QVRYVASSDLVRIP) [compound 345] registered a Count of 10.
The substance 346 (QVSLQEPGDVLKEF) [compound 346] had a Count of 10.
On the same count and under the same terms, the figure for 347 (QVSREEPSGVVNKP) [compound 347] is 10.
On the same count and under the same terms, the figure for 348 (RLPSEALYYLVKRS) [compound 348] is 10; for 349 (YVPVEGIQHVVEKS) [compound 349] it is 10.

The same experiment, now with this note: unique sequence count (relative enrichment); Nerve3 only.
The substance 350 (HVRCEEPYCHVRKS) [compound 350] yielded a Count of 755.
The same measure, in the same setting: the figure for 351 (ELPWQKRKDVMKYP) [compound 351] is 638.
In the case of 352 (QMPWEVPYYVVKRS) [compound 352], the Count is 548.
Same read-out and setting: the figure for 353 (DDIWEVPKYRPKNS) [compound 353] is 475; for 354 (QIASEERDNIVKKS) [compound 354] it is 462.
On the same count and under the same terms, the same measure for 355 (RVPWQEPYYVVLKP) [compound 355]: 419.
Regarding 356 (QLPGYEPYYVGTVS) [compound 356], the Count worked out at 412.
Regarding 357 (RIPSVGPYGVVKTF) [compound 357], the Count is 391.
358 (QDVWAEPYYAGKQP) [compound 358] came in with a Count of 390.
Still for that read-out and setting: the figure for 359 (HVAWQEPRYFVKKS) [compound 359] is 359.
360 (YLFAEELAYNLTKS) [compound 360] had a Count of 359.
361 (QRPWEQAYFVVRST) [compound 361] returned a Count of 357.
In turn, 362 (FVSREEPYYVVKKS) [compound 362] returned a Count of 341.
Consider 363 (DVAREKPYYDMKKS) [compound 363], for which the Count amounted to 335.
Substance 364 (QFPSVGSYYVVPQS) [compound 364] registered a Count of 331.
The substance 365 (HVVWESSHFVVIDS) [compound 365] displayed a Count of 329.
Consider 366 (QLRLGDLYNVMTKE) [compound 366], for which the Count worked out at 328.
Still for that read-out and setting: the figure for 367 (QFQWQELLNVVKDS) [compound 367] is 327; for 368 (HVPLQEADYVLKKF) [compound 368] it is 315.
Still for that read-out and setting: the same measure for 369 (QFPLYDPYEVMPKS) [compound 369]: 310; for 370 (HFRWDEPYYIANKA) [compound 370]: 300; for 371 (RDRHEDSKFVMNHS) [compound 371]: 290.
Still for that read-out and setting: the figure for 372 (QVPFAHPYYVVNMS) [compound 372] is 288; for 373 (HVRWGEPSYVLKNF) [compound 373] it is 272.
In turn, 374 (QGQTETHSHDAKRY) [compound 374] returned a Count of 270.
Same read-out and setting: the same measure for 375 (QLRFEGPDNPGVQS) [compound 375]: 269; for 376 (QLPWEVPYSVVRQS) [compound 376]: 267; for 377 (HVPLPGPYFVLKNY) [compound 377]: 263.
The same measure, in the same setting: the same measure for 378 (HVKRIETYYVFTKS) [compound 378]: 258; for 379 (RIHLYQPYSILKNY) [compound 379]: 258; for 380 (QFTSEETHYVVNKS) [compound 380]: 257.
On the same count and under the same terms, the same measure for 381 (QHPWEDPYKIFNKY) [compound 381]: 240; for 382 (DVPWPNAYNFGIKS) [compound 382]: 238; for 383 (DVPFEHSYYGEQQY) [compound 383]: 237.
The substance 384 (EFLGEAPYYVVSRS) [compound 384] showed a Count of 236.
On the same count and under the same terms, the same measure for 385 (HVSGEEPYTVGNTS) [compound 385]: 234; for 386 (QFQLDQSYYSFNTL) [compound 386]: 231; for 387 (QILRVHPDYVVVNP) [compound 387]: 231.
Turning to 388 (HFPWDEAYLVVKNP) [compound 388], the Count stood at 230.
With 389 (HFSSQESNSGGKKW) [compound 389], the Count came out at 230.
390 (HISGEDPYFILQNS) [compound 390] returned a Count of 212.
The substance 391 (TFQYEQPNLVVKNA) [compound 391] yielded a Count of 207.
With 392 (LLAWDEQDYFLRKT) [compound 392], the Count is recorded as 199.
Turning to 393 (HINWDKRYAVVITY) [compound 393], the Count is on record as 197.
The same measure, in the same setting: the figure for 394 (HFPSEYPFDLVSKS) [compound 394] is 196; for 395 (QFLWQQPDHVRRKS) [compound 395] it is 196.
Substance 396 (QIVLNAPYYVVKTS) [compound 396] yielded a Count of 189.
On the same count and under the same terms, the figure for 397 (TVPAHNPYYLVKQT) [compound 397] is 185; for 398 (QDPSVDPYYVDRSS) [compound 398] it is 181; for 399 (QFHCHGACYIVKNS) [compound 399] it is 180.
As to 400 (RLPQHESYIVGKIS) [compound 400], the Count came to 174.
Still for that read-out and setting: the figure for 401 (RVYWIDPYYIVNES) [compound 401] is 174; for 402 (QIPLKTPYNVVKKF) [compound 402] it is 171.
On the same count and under the same terms, the same measure for 403 (QFPQGEAGYIAKSF) [compound 403]: 163.
Still for that read-out and setting: the figure for 404 (QFYWDQSNYGEQKP) [compound 404] is 161; for 405 (HVPWAGSSDVLKVT) [compound 405] it is 160; for 406 (QVPWEKPVSFVQKS) [compound 406] it is 159.
On to 407 (HVWWEDPYYVVRKT) [compound 407], for which the Count came to 158.
Still for that read-out and setting: the figure for 408 (WLHWEQPYWTVKKS) [compound 408] is 143.
Same read-out and setting: the figure for 409 (LFAGENGYFTVRQF) [compound 409] is 139; for 410 (QVSWVYPPNDVIVS) [compound 410] it is 133.
411 (NDPWPVPYYMVKNS) [compound 411] had a Count of 130.
The substance 412 (QVQWQVPYYVVKKP) [compound 412] registered a Count of 128.
On the same count and under the same terms, the figure for 413 (HFPLQEPYYVVKNS) [compound 413] is 127; for 414 (QGSSVATSSVLTML) [compound 414] it is 123.
415 (QPCADKPYCVHTIT) [compound 415] yielded a Count of 123.
Same read-out and setting: the figure for 416 (HVWWEEAHYSWKHS) [compound 416] is 120.
417 (DLFVEEPYLGVIKF) [compound 417] returned a Count of 117.
418 (YSLWEDLIFNMQNS) [compound 418] showed a Count of 116.
In turn, 419 (QIPWVEASNVLISF) [compound 419] displayed a Count of 115.
The same measure, in the same setting: the figure for 420 (QFGQENHNHFVRKS) [compound 420] is 113; for 421 (QVSLVESRSVLKIL) [compound 421] it is 110.
For 422 (AVQRAKPYYAVQNS) [compound 422], the Count worked out at 109.
The same measure, in the same setting: the same measure for 423 (HLLGDYRFWAFTNA) [compound 423]: 109.
For the substance 424 (ESPWAPPYYVVKKS) [compound 424], the Count is on record as 107.
On to 425 (QIPTVEPYYEGKKS) [compound 425], for which the Count worked out at 105.
426 (QVRGGQPDQVLRLS) [compound 426] displayed a Count of 105.
Turning to 427 (FVARNEPFYVVGTS) [compound 427], the Count was found to be 104.
Same read-out and setting: the same measure for 428 (QIPLEEMYYVVRTY) [compound 428]: 103.
Same read-out and setting: the figure for 429 (QVSSVGPNHVVKKI) [compound 429] is 102.
Still for that read-out and setting: the figure for 430 (QLPWGKPYNVVVYS) [compound 430] is 101; for 431 (QTPWQVPGYNMLNS) [compound 431] it is 99.
Substance 432 (AYLSEQLNYVMKNS) [compound 432] came in with a Count of 98.
433 (QASSEAPSYPVVKS) [compound 433] showed a Count of 95.
The substance 434 (LDQWHTPNYVVRKS) [compound 434] showed a Count of 92.
On the same count and under the same terms, the same measure for 435 (QLLWDPPSYFVNNS) [compound 435]: 92; for 436 (DVPWEQPYFVVRNS) [compound 436]: 90; for 437 (QVPYGQSFVVGTSS) [compound 437]: 90.
438 (QLRWEDQYAHVEKS) [compound 438]: the Count is given as 89.
As for 439 (HVAWKAPYHFTKNS) [compound 439], the Count is on record as 87.
On the same count and under the same terms, the same measure for 440 (DGLYVRSFYVLQHS) [compound 440]: 86.
